Consider 13 compounds from patent US20240208969A1, “SUBSTITUTED FUSED BICYCLIC COMPOUNDS AS PARP INHIBITORS AND THE USE THEREOF” (IMPACT THERAPEUTICS (SHANGHAI), INC., priority 2021, published 2024).

A value given as a limit tells only on which side of the number the result lay.

This test deals with MDA-MB-436 cells. The experiment in a line: Inhibition of proliferation of human breast cancer MDA-MB-436 cell line (CCK-8, 7 days). The test is classed as cell-based. The following applies: Homo sapiens, 168 h, proliferation of MDA-MB-436, 7 days. The method, then:
The cells were cultured in complete medium (DMEM medium +10% FBS+Insulin+glutathione). When the confluence reached about 80%, cells were digested and gently dispensed from the bottom of the dish with a 1 mL pipette. Cell suspension was collected and centrifuged at 500 rpm for 3 min. The supernatant was discarded, and the cell pellet were re-suspended in complete medium. The cells were seeded into a culture dish at an appropriate proportion, and then cultured in a 5% CO2 incubator at 37° C. The assay was carried out when the cells were in optimum condition and the confluence was reached 80%. Cells were harvested in the logarithmic growth phase by using 1 mL pipette gently and then centrifugated at 500 rpm for 3 min. The cells were resuspended by using refresh medium after removing the supernatant and then the cells were counted. The cells were seeded at 3000/well in a 96 well plate and incubated at 37° C. 5% CO2 incubator overnight. In the second day, cells were treated with compound at 8 serially diluted dose with 1000×final concentration in 100% DMSO. The compound was prepared as below: 1000×dilution tested compound solution to 40×test compound solution by adding 5μL, 1000×compound solution to 120 μL Medium (25-fold dilution). The solution was mixed by oscillation. DMSO was used as the control.
The medium was removed from the wells in the plate after the plate was taken out from incubator. Then, fresh medium of 195 μL/per well was added to the 96 well plate. 5μL/per well of 40×test compound solution was added into the 96 well plate. Finally, the plate was incubated for 7 days in a 37° C. 5% CO2 incubator. The medium containing compound was changed once on the fourth day. After 7 days, 20 μL of CCK-8 was added to each well and shake gently, then was cultured for 4 hours. The plate was shaken for 5 min after incubation, the absorbance values of 450 nm. and 650nm wavelengths were recorded respectively (OD=absorbance value of 450 nm−absorbance value of 650 nm) by using the multifunction readout instrument.
Data were analyzed by software GraphPad Prism 6.0. The inhibitory activity of compounds on cell proliferation was plotted using cell survival rate against the compound concentration as coordinates. Cell survival rate %=(ODcompound−ODbackground)/(ODDMSO−ODbackground)×100. The IC50 value was fitted by the s-shaped dose response curve equation: Y=100/(1+10^(log C−log IC50)), and C was the compound concentration.
Table 2 summarizes the inhibitory effect data (IC50) of the compounds on the proliferation of human breast cancer cells MDA-MB-436, wherein ++++ indicates 1<IC50≤10 nM; +++ indicates 10 nM<IC50≤100 nM; ++ indicates 100 nM<IC50≤1 μM; + indicates IC50>1 μM.
On to `CNC(=O)c1ccc(N2CCN(Cc3ccc4c(=O)n(C)c(=O)[nH]c4c3)CC2)c(C)n1` [Example 99, N,6-dimethyl-5-(4-((3-methyl-2,4-dioxo-1,2,3,4-tetrahydroquinazolin-7-yl)methyl)piperazin-1-yl)picolinamide], for which the IC50 lay within 10 to 100 nM.

`CCn1c(=O)[nH]c2cc(CN3CCN(c4ccc(C(=O)NC)nc4C)CC3)c(Cl)cc2c1=O` [Example 53, 5-(4-((6-chloro-3-ethyl-2,4-dioxo-1,2,3,4-tetrahydroquinazolin-7-yl)methyl)piperazin-1-yl)-N,6-dimethylpicolinamide]: the IC50 was more than 1000 nM.

`CCn1c(=O)[nH]c2cc(CN3CCN(c4ccc(C(=O)NC)cc4C)CC3)ccc2c1=O` [Example 71, 4-(4-((3-ethyl-2,4-dioxo-1,2,3,4-tetrahydroquinazolin-7-yl)methyl)piperazin- -yl)-N,3-dimethylbenzamide]: the concentration for half-maximal inhibition (IC50) was more than 1000 nM.

For `CCn1c(=O)[nH]c2cc(CN3CCN(c4ccc5cc[nH]c5c4)CC3)ccc2c1=O` [Example 110, 7-((4-(1H-indol-6-yl)piperazin-1-yl)methyl)-3-ethylquinazoline-2,4(1H,3H)-dione], the IC50 was more than 1000 nM.

Take `CNC(=O)c1ccc(N2CCN(Cc3ccc4c(=O)n(C)c(=O)[nH]c4c3)CC2)c(Cl)n1` [Example 98, 6-chloro-N-methyl-5-(4-((3-methyl-2,4-dioxo-1,2,3,4-tetrahydroquinazolin-7-yl)methyl)piperazin-1-yl)picolinamide]: the IC50 lay within 100 to 1000 nM.

The compound `CCn1c(=O)[nH]c2cc(CN3CCN(c4ccc(C(=O)NC)nc4C(F)F)CC3)ccc2c1=O` [Example 35, 5-(4-((3-ethyl-2,4-dioxo-1,2,3,4-tetrahydroquinazolin-7-yl)methyl)piperazin-1-yl)-6-(difluoromethyl)-N-methylpicolinamide] came in with an IC50 of 100 to 1000 nM.

As for `CCN1Cc2ncc(CN3CCN(c4ccc(C(=O)NC)nc4)CC3)cc2NC1=O` [Example 144, 5-(4-((3-ethyl-2-oxo-1,2,3,4-tetrahydropyrido[3,2-d]pyrimidin-7-yl)methyl)piperazin-1-yl)-N-methylpicolinamide], the 50% inhibitory concentration (IC50) was in the range of 10 to 100 nM.

Compound `CCn1c(=O)[nH]c2cc(CN3CCN(c4ccc(C(=O)NC)cc4)CC3)ccc2c1=O` [Example 68, 4-(4-((3-ethyl-2,4-dioxo-1,2,3,4-tetrahydroquinazolin-7-yl)methyl)piperazin-1-yl)-N-methylbenzamide] showed a half-inhibitory concentration (IC50) of more than 1000 nM.

Regarding `CCn1c(=O)[nH]c2cc(CN3CCN(c4cnc(C(=O)NC)c(C)c4)CC3)ccc2c1=O` [Example 51, 5-(4-((3-ethyl-2,4-dioxo-1,2,3,4-tetrahydroquinazolin-7-yl)methyl)piperazin-1-yl)-N,3-dimethylpicolinamide], the IC50 is more than 1000 nM.

Regarding `CCn1c(=O)[nH]c2cc(CN3CCN(c4ccc5c(c4)CCNC5=O)CC3)ccc2c1=O` [Example 37, 3-ethyl-7-((4-(1-oxo-1,2,3,4-tetrahydroisoquinolin-6-yl)piperazin-1-yl)methyl)quinazoline-2,4(1H,3H)-dione], the IC50 is more than 1000 nM.

On to `CCn1c(=O)[nH]c2cc(CN3CCN(c4ccc(C(=O)NC)nc4C)CC3)ncc2c1=O` [Example 81, 5-(4-((3-ethyl-2,4-dioxo-1,2,3,4-tetrahydropyrido[4,3-d]pyrimidin-7-yl)methyl)piperazin-1-yl)-N,6-dimethylpicolinamide], for which the IC50 lay within 10 to 100 nM.

As to `CCn1c(=O)[nH]c2cc(CN3CCC(c4ccc(C(=O)NC)nc4C)CC3)ccc2c1=O` [Example 58, 5-(1-((3-ethyl-2,4-dioxo-1,2,3,4-tetrahydroquinazolin-7-yl)methyl)piperidin-4-yl)-N,6-dimethylpicolinamide], the IC50 was more than 1000 nM.

On to `CCn1c(=O)[nH]c2cc(-c3cccc(C(=O)Nc4ccc(C(=O)NC)nc4)n3)ccc2c1=O` [Example 46, 6-(3-ethyl-2,4-dioxo-1,2,3,4-tetrahydroquinazolin-7-yl) -N-(6-(methylcarbamoyl)pyridin-3-yl)picolinamide], for which the IC50 is 100 to 1000 nM.
